“Also recorded” adds a separate entry of the source.
Key:
[1] = test system: primary cell culture of rat cortical neurons; assay: Morphological evaluation of neurite length (MAP2 staining) in primary cultures; type: cell-based; conditions: for Increase respect to control (culture A): neurite length relative to control culture A; for Increase respect to control (culture A) / Increase of average neurite length: overall concentration 10 μM (culture B: 40 ng mL−1 bFGF), 6 days incubation; for Increase of average neurite length: control culture A 280; for Effect on neurite extension/length (in words): overall concentration 10 μM, compared to control culture A
Method: Eight primary cellular cultures were prepared as described in Abe K et al. “Effects of recombinant human basic fibroblast growth factor and its modified protein CS23 on survival of primary cultured neurons from various regions of fetal rat brain.”, Jpn J Pharmacol 1990, 53 (2): 221-7. All operations were carried out under sterile conditions.
Neuronal cells were separated from cerebral hemispheres of rat fetuses of 18 days (Japan SLC, Inc.) and suspended in 10% FBS/MEM, then seeded at 9000 cells cm^−2 in poly-L-lysine plates.
After 24 hours, the culture medium was replaced with a serum-free medium, specific for the growth of neurons (Neurobasal Medium) supplemented with B27.
After 6 days incubation, the cells of the eight cultures were fixed with 4% formaldehyde.
The eight cultures were then evaluated regarding the length of neurites at the microscopic level. The neurons were subjected to immunohistochemical staining for the microtubule-associated protein-2 (MAP2) according to the histochemical method for the length of neurites, as described in Fukuyama Y et al. “Neurotrophic activity of honokiol on the cultures of fetal rat cortical neurons” Bioorg. Med Chem. Lett 12, 1163-66 (2002). The length of the most extended neurite of the whole cellular body was measured and calculated by using software programs Lumina Vision and Mac-SCOPE, according to the above-mentioned method described in Y. Fukuyama et al. (2002). The morphometric analyses were performed by measuring the length of the longest neurite from each neuron using Lumina Vision and Mac-Scope software (Yoshiyasu Fukuyama et al. 2002).

[2] = test system: symptoms of diabetic polyneuropathy and sciatic pain; conditions: cited from earlier work
[3] = test system: cultured rat cortical neurons; conditions: primary cultures; cited from earlier work

O=C(O)CCCCC1CCSS1 (stereo not drawn) [Culture G, alpha-lipoic acid]
Increase respect to control (culture A) [1]: 1.01
Increase of average neurite length [1]: 285 (p = ns) μm
Effect on neurite extension/length (in words) [1]: stimulated neurite growth in a negligible way
Side effects such as nausea, vomiting and dizziness ([2]; daily doses 600, 1200 and 1800 mg): dose-dependent increase of the side effects
Daily dose providing the best risk/benefit ratio ([2]; treatment of symptoms of diabetic polyneuropathy and sciatic pain): 600 mg

C=CCc1ccc(O)c(-c2ccc(O)c(CC=C)c2)c1 [Culture H, honokiol]
Increase respect to control (culture A) [1]: 1.02
Increase of average neurite length [1]: 287 (p = ns) μm
Effect on neurite extension/length (in words) [1]: stimulated neurite growth in a negligible way
Neurite growth and neuron survival (in words) [3]: able to promote neurite growth; also recorded: capable of increasing the survival and development of neurons

Culture B: Human recombinant fibroblast growth factors (bFGF), 40 ng mL−1, supplied by Upstate Biotechnology
Increase respect to control (culture A) [1]: 1.05
Increase of average neurite length [1]: 295 (p = ns) μm
